# What was measured:
# [1] = Clinical Study #2: plasma pharmacokinetics of dextromethorphan, dextrorphan and quinidine, single and multiple dose; settings: for AUC(0-t) / Cmax / half-life / Tmax: human, in vivo, mean, 30 mg DM HBr/25 mg Q sulfate capsule every 12 hours; for AUC(0-t): AUC (0-12) (plasma); for Cmax: Cmax (plasma); for half-life: T ½ el (plasma); for Tmax: Tmax (plasma)
# Protocol: Descriptive statistics for each parameter, including mean, median, standard deviation, coefficient of variation, N, minimum, and maximum were calculated for all of the subjects by Day. In addition, descriptive statistics were presented by the subgroups: extensive metabolizer (EM) and poor metabolizer (PM).
# The ANOVA model included the factors group (EM or PM), subject within group, day, and the interaction term day by group. The group effect was tested using the subject within group mean square, and all other main effects were tested using the residual error (error mean square). In addition, tests of the hypotheses Day 1=Day 4, Day 1=Day 8, and Day 4=Day 8 were performed.
# [2] = type: in vivo
# Text: An adverse event was any unfavorable and unintended sign (including an abnormal laboratory finding, for example), symptom, or disease temporally associated with the use of a medicinal product, whether or not considered related to the medicinal product. Changes associated with normal growth and development not varying in frequency or magnitude from that ordinarily anticipated clinically are not adverse events (for example, onset of menstruation occurring at a physiologically appropriate time). Clinical adverse events were described by diagnosis and not by symptoms when possible (for example, cold or seasonal allergies, instead of “runny nose”).
# The severity of adverse events was graded on a 3-point scale and reported in detail as indicated on the Case Report Form: mild—easily tolerated, causing minimal discomfort, and not interfering with normal everyday activities; moderate—sufficiently discomforting to interfere with normal everyday activities; and severe—incapacitating and/or preventing normal everyday activities.
# Subjects were instructed to promptly report any adverse event. The serious adverse event was assessed for the following details: seriousness of event, start date, stop date, intensity, frequency, relationship to test drug, action taken regarding test drug, treatment required, and outcome to date. These details were recorded on the Case Report Form. Such preliminary reports were followed by detailed descriptions that included copies of hospital case reports, autopsy reports, and other documents when requested and applicable.
# Blood and urine were collected at the screening visit and Day 29 for clinical chemistry, hematology, urinalysis, and pregnancy testing. In the event of an abnormal laboratory test value, the test was repeated within one week, and the subject was followed up until the value returned to the normal range and/or until an adequate explanation of the abnormality was found.
# Values were obtained for systolic and diastolic blood pressure, heart rate, and respiration rate on the screening visit and all other study visits. All values outside the pre-defined ranges were flagged in the subject data listings. Electrocardiography (twelve lead) was used to obtain ventricular rate (VR), QT, Q-Tc intervals, […] (PR), and QRS duration. A blood sample (10 mL whole blood) was taken from each subject at the Screening Visit for CYP2D6 genotyping to determine which subjects were poor metabolizers of DM and which were extensive metabolizers. Blood samples were taken on Day 29 for the determination of concentrations of DM, DX, and Q in plasma. The relationship between the concentration of drug in plasma and changes in CNS-LS scores was determined, and the effect of the CYP2D6 genotype on this relationship was evaluated.
# [3] = system: ALS subjects with pseudobulbar affect; test: Clinical Study #4: QOL and QOR visual analog scales; type: in vivo, human
# Protocol: Subjects completed the CNS-LS questionnaire and visual analog scales assessing quality of life (QOL) and quality of relationships (QOR) every two weeks (Days 1, 15, and 29) during the treatment period. A clinical psychologist, or other approved clinician, administered the Hamilton Rating Scale for Depression (HRSD) at the Screening Visit and on Day 29. Safety was evaluated on Day 15 and Day 29 by examining adverse events, results of physical examinations, vital signs, clinical laboratory values, and resting electrocardiograms (ECGs). In addition to blood samples taken to provide clinical laboratory data, blood was also taken for pharmacokinetic analysis and CYP2D6 genotyping. Each subject completed a diary in which the number of episodes experienced, medications taken, and any adverse events were recorded daily.
# The primary efficacy variable was the CNS-LS score. All efficacy variables involving a change were determined by the baseline score being subtracted from the mean of the non-missing scores on Days 15 and 29. The secondary efficacy variables were laughing/crying episodes, QOL scores, and QOR scores. […]
# Secondary efficacy was assessed by using two, 10-cm visual analog scales (VAS). One scale asked subjects to rate how much uncontrollable laughter, tearfulness, or anger had affected the overall quality of their life during the past week, and one scale asked subjects to rate how much uncontrollable laughter, tearfulness, or anger had affected the quality of their relationships with others during the past week. Each scale required less than one minute to complete. The subjects recorded episodes of pathological laughing and crying in a diary daily.
# [4] = Clinical Study #1: adverse events in dextromethorphan phenotyping and quinidine dose determination study; settings: single oral dose 30 mg capsule; headache, mild
# Protocol: A phenotyping study directed to dextromethorphan was conducted. The study was an open-label single dose study. Subjects were screened to ensure they met the inclusion and exclusion criteria. Subjects received a single oral dose of dextromethorphan hydrobromide 30 mg capsule taken with 240 mL of tap water. A total of fifty-eight subjects were screened and fifty subjects dosed. The study determined each subject's ability to metabolize dextromethorphan. Subjects who met the inclusion/exclusion criteria remained in house for dosing. Each subject was administered one 30 mg capsule (P.M.) of dextromethorphan. Urine was collected predose through 12 hours postdose and analyzed for dextromethorphan and dextrorphan.
# The study was an open-label, randomized, multiple dose study. Subjects identified as extensive metabolizers received an evening dose on Day 1, at 12-hour intervals for the next six days, with a final morning dose on Day 8. All subjects were instructed to dose themselves at home on eight occasions with medication dispensed to them. Subjects maintained a diary during the study to record adverse effects. […]
# A total of eight blood samples (40 mL) were drawn during the study (including the dextromethorphan screen) for drug analysis. […] At the end of the interval, the total volume was recorded and two aliquots were frozen at −20° C. until assayed for dextromethorphan and dextrorphan.
# [5] = All Days: mean of scores on Days 15 and 29 minus Day 1
smiles,measurement,setting,value
"COc1ccc2c(c1)[C@]13CCCCC1[C@H](C2)N(C)CC3 (single isomer, unassigned; (+)) [Dextromethorphan, (+)-3-methoxy-N-methylmorphinan]",AUC(0-t),"[1]; Day 1, All Subjects",148 ng·h/mL
same,AUC(0-t),"[1]; Day 1, EM",133 ng·h/mL
same,AUC(0-t),"[1]; Day 1, PM",198 ng·h/mL
same,AUC(0-t),"[1]; Day 4, All Subjects",886 ng·h/mL
same,AUC(0-t),"[1]; Day 4, EM",812 ng·h/mL
same,AUC(0-t),"[1]; Day 4, PM",1150 ng·h/mL
same,AUC(0-t),"[1]; Day 8, All Subjects",1160 ng·h/mL
same,AUC(0-t),"[1]; Day 8, EM",1050 ng·h/mL
same,AUC(0-t),"[1]; Day 8, PM",1530 ng·h/mL
same,Cmax,"[1]; Day 1, All Subjects",17.3 ng/mL
same,Cmax,"[1]; Day 1, EM",15.9 ng/mL
same,Cmax,"[1]; Day 1, PM",22.3 ng/mL
same,Cmax,"[1]; Day 4, All Subjects",83.1 ng/mL
same,Cmax,"[1]; Day 4, EM",76.7 ng/mL
same,Cmax,"[1]; Day 4, PM",106 ng/mL
same,Cmax,"[1]; Day 8, All Subjects",105 ng/mL
same,Cmax,"[1]; Day 8, EM",95.5 ng/mL
same,Cmax,"[1]; Day 8, PM",136 ng/mL
same,half-life,"[1]; Day 8, All Subjects",20.3 h
same,half-life,"[1]; Day 8, EM",13.1 h
same,half-life,"[1]; Day 8, PM",42 h
same,Tmax,"[1]; Day 1, All Subjects",7.11 h
same,Tmax,"[1]; Day 1, EM",6.85 h
same,Tmax,"[1]; Day 1, PM",8 h
same,Tmax,"[1]; Day 4, All Subjects",5.55 h
same,Tmax,"[1]; Day 4, EM",5.42 h
same,Tmax,"[1]; Day 4, PM",6 h
same,Tmax,"[1]; Day 8, All Subjects",5.77 h
same,Tmax,"[1]; Day 8, EM",5.99 h
same,Tmax,"[1]; Day 8, PM",4.99 h
same,Fold increase in AUC (0-12) from Day 1 to Day 8,[1]; poor metabolizers,6.1 fold
same,Subjects with dizziness,"[2]; 28 days, twice daily",15.2%
same,Subjects with loose stools,"[2]; 28 days, twice daily",Three
same,Subjects with nausea,"[2]; 28 days, twice daily",6.1%
same,Subjects with somnolence,"[2]; 28 days, twice daily",3.0%
same,Subjects who withdrew because of adverse events,"[2]; human, in vivo, 29 days",6.1%
same,"CPK, change Baseline to Day 29",[2]; relative to the 30DM/30Q group,significant increase in CPK
same,"Change in VAS QOL score, Max",[3]; [5],27
same,"Change in VAS QOL score, Mean",[3]; [5],−17.41
same,"Change in VAS QOL score, Median",[3]; [5],−11.0
same,"Change in VAS QOL score, Min",[3]; [5],−90.5
same,"Change in VAS QOR score, Max",[3]; [5],23.5
same,"Change in VAS QOR score, Mean",[3]; [5],−9.98
same,"Change in VAS QOR score, Median",[3]; [5],−4.50
same,"Change in VAS QOR score, Min",[3]; [5],−71.0
same,"Change in VAS QOL score, Max",[3]; Day 15 minus Day 1,55
same,"Change in VAS QOL score, Mean",[3]; Day 15 minus Day 1,−17.14
same,"Change in VAS QOL score, Median",[3]; Day 15 minus Day 1,−13
same,"Change in VAS QOL score, Min",[3]; Day 15 minus Day 1,−90
same,"Change in VAS QOR score, Max",[3]; Day 15 minus Day 1,34
same,"Change in VAS QOR score, Mean",[3]; Day 15 minus Day 1,−11.75
same,"Change in VAS QOR score, Median",[3]; Day 15 minus Day 1,−7
same,"Change in VAS QOR score, Min",[3]; Day 15 minus Day 1,−71
same,"Change in VAS QOL score, Max",[3]; Day 29 minus Day 1,27
same,"Change in VAS QOL score, Mean",[3]; Day 29 minus Day 1,−19.31
same,"Change in VAS QOL score, Median",[3]; Day 29 minus Day 1,−7
same,"Change in VAS QOL score, Min",[3]; Day 29 minus Day 1,−91
same,"Change in VAS QOR score, Max",[3]; Day 29 minus Day 1,26
same,"Change in VAS QOR score, Mean",[3]; Day 29 minus Day 1,−10.38
same,"Change in VAS QOR score, Median",[3]; Day 29 minus Day 1,−3.0
same,"Change in VAS QOR score, Min",[3]; Day 29 minus Day 1,−71
same,Adverse effects reported during the phenotyping study,[4],One

# Reference: patent US20130072517A1 (Avanir Pharmaceuticals, Inc., priority 2002, published 2013)
